The nature of this data set: Human HepG2 cell viability assay in 384 well format. It is filed as toxicity, cell-based. The arrangement: dose 125 nL, time 70.5 hour; cytotoxicity at 70.5 h: concentration not given beside the values. The conditions noted are these: HepG2 cells, read-out: Inhibition.
Turning to `COCCn1cc(C(=O)N2CCCC2c2noc(C)n2)ccc1=O` (stereo not drawn), the cytotoxicity at 70.5 h was 40.8%.

For the compound `O=C(Cn1ccc2ccccc21)Nc1cc(N2CCOCC2)ncn1`, the cytotoxicity at 70.5 h was 14.8%.

For the compound `CC(C(=O)N1CCCC1)n1nc(-c2cccs2)cc(N)c1=O` (stereo not drawn), the cytotoxicity at 70.5 h worked out at 5.25%.

Regarding `Cc1noc(CCNS(=O)(=O)N2CCCC2c2ccco2)n1` (stereo not drawn), the cytotoxicity at 70.5 h was -8.16%.

`COc1ccccc1C(=O)N1CCOCC1c1c(C)n[nH]c1C` (stereo not drawn): the cytotoxicity at 70.5 h is -15.2%.

On to `Cc1nn(C)c(Cl)c1C1CCCN1c1ncnc2c1CCC2` (stereo not drawn), for which the cytotoxicity at 70.5 h amounted to 18%.

On to `CCC(C)c1noc(C2CCN(C(=O)Cn3nc(C)cc3C)CC2)n1` (stereo not drawn), for which the cytotoxicity at 70.5 h is -5.55%.

For `Cc1ccc(CNC(=O)C2c3c(ncn3C(C)C)CCN2S(C)(=O)=O)o1` (stereo not drawn), the cytotoxicity at 70.5 h was -0.242%.

In the case of `O=C(Nc1ccc(-n2cccn2)cc1)N1CCOCC(O)C1` (stereo not drawn), the cytotoxicity at 70.5 h is -20.9%.

For `CCCc1ccc(CN2CCN(C(=O)C(C)C)[C@@H]3CS(=O)(=O)C[C@@H]32)o1`, the cytotoxicity at 70.5 h is -6.33%.

`CCC(=O)N1CCc2nc(N3CCOCC3)nc(N(C)C)c2CC1`: the cytotoxicity at 70.5 h worked out at 35.1%.

For `COc1ccc(-n2cccn2)c(CN2CCC3(CCCN(C)C3=O)C2)c1` (stereo not drawn), the cytotoxicity at 70.5 h is -9.91%.

As to `Cc1nn(C)c2c(NCc3cccnc3)nc(C3CC3)nc12`, the cytotoxicity at 70.5 h was -3.52%.

`O=C(CCCNC(=O)C1CCCO1)Nc1ccc(Cl)cc1` (stereo not drawn): the cytotoxicity at 70.5 h was found to be 17.1%.

With `Cc1ccc(NC(=O)CC2NC(N3CCc4ccccc43)=NC2=O)cc1` (stereo not drawn), the cytotoxicity at 70.5 h was -7.26%.

As to `Cc1ccccc1CC(=O)NCc1cnc(CC2CCN(C)CC2)cn1`, the cytotoxicity at 70.5 h was -4.57%.

`CCCOc1ccc(CNCCn2cccn2)cc1`: the cytotoxicity at 70.5 h is -12.1%.

Regarding `COCCN1CCCC12CCN(C(=O)CC1CCCC1)CC2`, the cytotoxicity at 70.5 h amounted to 3.49%.

Turning to `CSc1ncc(CN(C)C(C)c2cccnc2)cn1` (stereo not drawn), the cytotoxicity at 70.5 h is -0.91%.

For `CC(C)N1CCOCC2(CCCN(C(=O)CCc3cccnc3)C2)C1` (stereo not drawn), the cytotoxicity at 70.5 h is -6.39%.

For the compound `O=C1NCCN2CCN(Cc3ccc(Cl)c(Cl)c3)CC12` (stereo not drawn), the cytotoxicity at 70.5 h was -8.1%.

`CCN1CC2(CCN(Cc3nc(CSC)no3)CC2)CC1=O`: the cytotoxicity at 70.5 h came out at 23.5%.

Consider `Cc1ccnc(N2CCN(C[C@]3(O)CCCN4CCCC[C@@H]43)CC2)c1`, for which the cytotoxicity at 70.5 h is 1.52%.

Turning to `O=C(NCCOc1ccc2c(c1)CCC2)N1CCS(=O)(=O)CC1`, the cytotoxicity at 70.5 h worked out at 23.8%.

Regarding `Cc1nc(C2CCCN(C(=O)c3cc(C(C)(C)C)on3)C2)no1` (stereo not drawn), the cytotoxicity at 70.5 h was -1.93%.

As for `O=C(O)C(c1ccc2c(c1)OCCO2)N1CCC(N2CCOCC2)CC1` (stereo not drawn), the cytotoxicity at 70.5 h was determined as 0.0244%.

In the case of `CCNc1ncc(CN2C[C@@H](C(=O)O)[C@H](C3CC3)C2)cn1`, the cytotoxicity at 70.5 h was -7.25%.

On to `Cc1nc(N(C)C)nc(N2CCC3(CC2)CNC(=O)O3)c1C`, for which the cytotoxicity at 70.5 h is -5.15%.

Turning to `O=C(C1CCOCC1)N1CC[C@@](O)(c2ccccc2)[C@H]2CCCC[C@@H]21`, the cytotoxicity at 70.5 h amounted to 24.9%.

For the compound `COc1ccc(Br)cc1SCCC(N)=O`, the cytotoxicity at 70.5 h is -0.68%.

For `CNc1ccnc(N2CCC(c3nnc(CN4CCCC4)n3C)CC2)n1`, the cytotoxicity at 70.5 h worked out at 13.4%.

On to `O=C(NCCOCC(F)(F)F)c1ccc(-c2ccco2)[nH]c1=O`, for which the cytotoxicity at 70.5 h is -9.67%.

As to `O=C1CC2(CCCCN2C(=O)Cc2ccccc2)CN1c1cccnc1` (stereo not drawn), the cytotoxicity at 70.5 h is -1.11%.

Turning to `Cc1ncc(CN2CCOCC2)c2cc(C(=O)c3ccc(Br)cc3)oc12`, the cytotoxicity at 70.5 h is -13.8%.

As for `Cc1noc([C@]23COC[C@H]2CN(C(=O)N2CCCC2)C3)n1`, the cytotoxicity at 70.5 h is -6.89%.

As to `O=C(NCCO)Nc1cnc2cc(Cl)ccc2c1O`, the cytotoxicity at 70.5 h was -5.27%.

Turning to `COc1ccc(CNC(=O)NCCCNS(C)(=O)=O)cc1OC`, the cytotoxicity at 70.5 h is -8.21%.

For the compound `Cc1nc(C)n(CC2CCCN(CCCc3ccccc3)C2)n1` (stereo not drawn), the cytotoxicity at 70.5 h turned out to be 4.81%.

With `CO[C@H]1CN(Cc2nc3ccccc3n2C)CC[C@@]12CCCO2`, the cytotoxicity at 70.5 h is -4.2%.

Consider `O=C(NC[C@]12COC[C@H]1CN(Cc1nccs1)C2)c1ccccc1`, for which the cytotoxicity at 70.5 h was -15%.

Turning to `CN(C)C(=O)N1CCN(Cc2noc(Cc3ccccc3)n2)CC1`, the cytotoxicity at 70.5 h is -5.82%.

As for `Cn1cc(-c2ncnc3c2CCN(C(=O)N2CCOCC2)CC3)cn1`, the cytotoxicity at 70.5 h is -5.18%.

Take `CN(CC1(O)CCCCC1)C1CCCN(Cc2noc(C3CC3)n2)C1` (stereo not drawn): the cytotoxicity at 70.5 h was found to be 16.9%.

With `CC(=O)NCC(Cc1cccc(F)c1)n1cccc1` (stereo not drawn), the cytotoxicity at 70.5 h is -5.86%.

In the case of `CCc1c(C)nn2c(O)cc(C3CCN(C(=O)C4CC4)C3)nc12` (stereo not drawn), the cytotoxicity at 70.5 h is -6%.

As for `CC1CCN(Cc2ccccc2CNC(=O)C2CNC(=O)N2)CC1` (stereo not drawn), the cytotoxicity at 70.5 h is -4.5%.

Regarding `COc1ccccc1Cc1cc(O)nc(NC(C)CN(C)C)n1` (stereo not drawn), the cytotoxicity at 70.5 h worked out at 2.81%.

With `NC(=O)COc1cccc(C(=O)N2CCCC(n3ccnc3)C2)c1` (stereo not drawn), the cytotoxicity at 70.5 h was -14.8%.

Turning to `CCNC(=O)[C@@H]1C[C@H](N)CN1Cc1ccc(-c2cc[nH]n2)o1`, the cytotoxicity at 70.5 h came to 9.98%.

With `O=C(c1ccnnc1)N1CCN(Cc2cccnc2)c2ncccc2C1`, the cytotoxicity at 70.5 h was -8.62%.

For `Cc1ncc(C(=O)N2CCCC(Cc3nccs3)C2)cn1` (stereo not drawn), the cytotoxicity at 70.5 h was -8.16%.

On to `O=C(CCc1ccsc1)Nc1cnccc1O`, for which the cytotoxicity at 70.5 h is -6.71%.

For `CCc1nc(CN2CCOC(Cn3cncn3)C2)no1` (stereo not drawn), the cytotoxicity at 70.5 h amounted to 16.6%.

With `c1cc(-c2noc(-c3cc(C4CC4)[nH]n3)n2)cc(N2CCCCC2)n1`, the cytotoxicity at 70.5 h is -0.746%.

For the compound `CS(=O)(=O)NC1CCN(C(=O)c2ccc(Br)o2)C1` (stereo not drawn), the cytotoxicity at 70.5 h was -5.52%.

As for `CCS(=O)(=O)N1CCc2onc(CNc3ncccn3)c2C1`, the cytotoxicity at 70.5 h is -8.6%.

Regarding `Cc1nc(CN2CCCC(CCNS(C)(=O)=O)C2)c[nH]1` (stereo not drawn), the cytotoxicity at 70.5 h was -11.3%.

As to `COCc1cc(C[C@@H]2CC[C@H](O)[C@@H](CN(C)C)O2)no1`, the cytotoxicity at 70.5 h is -0.737%.

As to `c1coc(CN2CCO[C@@]3(CCC[C@@H]3COCc3nccs3)C2)c1`, the cytotoxicity at 70.5 h was -13.3%.

As to `COc1ccccc1CNC(=O)CS(=O)(=O)Cc1ccccc1`, the cytotoxicity at 70.5 h was -3.93%.

In the case of `CNc1cc(N2CCCC2CNCc2cccc(C(N)=O)c2)ncn1` (stereo not drawn), the cytotoxicity at 70.5 h is -2.53%.

Consider `CS(=O)(=O)c1cn[nH]c1C1CCCCN1C(=O)c1cnccn1` (stereo not drawn), for which the cytotoxicity at 70.5 h is -5.18%.

For the compound `CC(=O)NCCC(=O)NCC1(c2c(F)cccc2F)CCCC1`, the cytotoxicity at 70.5 h was -3.9%.

With `c1ccc(COC[C@H]2CC[C@H]3[C@H](CCN3Cc3ccccn3)O2)nc1`, the cytotoxicity at 70.5 h is -10.3%.

In the case of `NCCc1c(-c2ccccc2)[nH][nH]c1=O`, the cytotoxicity at 70.5 h is -7.56%.

Consider `Cc1sc2nc(CCN)nc(N(C)CCCC3CCCO3)c2c1C` (stereo not drawn), for which the cytotoxicity at 70.5 h was 16.5%.

For `CN(C)C(=O)CN1CCN(C(=O)C2CSc3ccccc3O2)CC1` (stereo not drawn), the cytotoxicity at 70.5 h is -16.2%.

In the case of `Cn1ncc2c(=O)[nH]c(CN(Cc3ccco3)C3CCCC3)nc21`, the cytotoxicity at 70.5 h is -0.279%.

For `Cc1cccc(N2CCC(NCc3cnc(C4CCC4)s3)CC2)n1`, the cytotoxicity at 70.5 h is 3.13%.

For the compound `COCCOc1ccnc(-c2noc([C@@H]3CCCN3CC3CC3)n2)c1`, the cytotoxicity at 70.5 h is -9.26%.

With `Cn1cccc1-c1cc(C(=O)N2CCCC2c2ccc(C(N)=O)s2)[nH]n1` (stereo not drawn), the cytotoxicity at 70.5 h is -2.9%.

For `Cc1noc(C)c1CCC(=O)NC(C)c1nnc2n1CCCCC2` (stereo not drawn), the cytotoxicity at 70.5 h was -4.24%.

Take `Cc1cc(CN2C[C@H]3CCC[C@@]3(COCC(=O)N3CCCC3)C2)no1`: the cytotoxicity at 70.5 h was -4.89%.

As to `O=c1oc(-c2ccc(F)cc2)nn1CC1CCOC1` (stereo not drawn), the cytotoxicity at 70.5 h is 16.4%.

With `CC[C@@H]1C[C@H](C(F)(F)F)n2nc(C3CCN(S(=O)(=O)CC)CC3)cc2N1`, the cytotoxicity at 70.5 h came out at 18.8%.

On to `CCSc1nnc(CCNC(=O)OC(C)(C)C)o1`, for which the cytotoxicity at 70.5 h is 13%.

For `CCc1nc(CN(C(C)=O)C2CCN(Cc3csc(C)n3)C2)no1` (stereo not drawn), the cytotoxicity at 70.5 h is -2.47%.

In the case of `NC(=O)N1C[C@H]2CN(Cc3nccs3)C[C@H]2C1`, the cytotoxicity at 70.5 h is -18.2%.

For the compound `Cc1cc(C)c(C(=O)NC(CN2CCCC2)c2ccccc2)c(=O)[nH]1` (stereo not drawn), the cytotoxicity at 70.5 h is -20.3%.

On to `CNc1cc2c(nn1)CCN(C(=O)c1ccc3c(c1)CCC3)C2`, for which the cytotoxicity at 70.5 h is -4.27%.

Consider `COCCN1CC[C@H]2OCC[C@@H](C(=O)Nc3cccnc3)[C@@H]2C1`, for which the cytotoxicity at 70.5 h stood at 53%.

For the compound `Cc1sc(CN)nc1-c1ccc(Cl)cc1Cl`, the cytotoxicity at 70.5 h came to 5.42%.

`COCc1cc(NCCc2ccccn2)n2nccc2n1`: the cytotoxicity at 70.5 h is 29%.

For `Cc1cnc(CN2CCOC(CNc3cccnn3)C2)cn1` (stereo not drawn), the cytotoxicity at 70.5 h is -8.2%.

As to `Cc1cc(N2CCN(Cc3cn(C)nc3C)CC2)cc(C2CCNC2)n1` (stereo not drawn), the cytotoxicity at 70.5 h is -5.44%.

On to `O=C(CS(=O)(=O)c1ccccc1Cl)NC1CCCCNC1=O` (stereo not drawn), for which the cytotoxicity at 70.5 h is -25.9%.

As to `CC[C@@H](C)[C@H](NC(=O)Cn1ccc2c(Cl)cccc21)C(=O)O`, the cytotoxicity at 70.5 h was -13.9%.

As for `Cc1nc(CN2CCN(C(C)c3nc(C(C)C)no3)CC2)oc1C` (stereo not drawn), the cytotoxicity at 70.5 h is -0.487%.

With `CN(C)CC(=O)N1C[C@@H]2CC[C@H](Oc3ccccc3)[C@@H]2C1`, the cytotoxicity at 70.5 h was -0.0251%.

On to `Cc1c(C)n2c(SCC(=O)N3CCCC3)nnc2[nH]c1=O`, for which the cytotoxicity at 70.5 h is -7.34%.

As to `CN(Cc1cccs1)C1CCC[C@@H]2CN(C(=O)c3cccn3C)C[C@H]12` (stereo partly drawn), the cytotoxicity at 70.5 h was -12.3%.

Take `CNC(=O)CS(=O)(=O)C1CCN(S(=O)(=O)C2CC2)CC1`: the cytotoxicity at 70.5 h was -3.01%.

`COCC(=O)N(C)Cc1ccc(F)c(F)c1`: the cytotoxicity at 70.5 h is 28.3%.

Take `Cc1cccc(C(=O)N2CC(C(=O)NCC3CC3)C3(CCOCC3)C2)n1` (stereo not drawn): the cytotoxicity at 70.5 h is -2.96%.

For `O=C(c1cccc(C(F)(F)F)c1)N1CC(=O)N(C2CCC2)CC(O)C1` (stereo not drawn), the cytotoxicity at 70.5 h was -7.16%.

Take `O=C(c1cn(-c2ccccc2C(F)(F)F)nn1)N1CCSCC1`: the cytotoxicity at 70.5 h was -15.5%.

Consider `Cc1cc(C(F)(F)F)nn1CC(C)C(=O)Nc1ccccn1` (stereo not drawn), for which the cytotoxicity at 70.5 h was -12.5%.

In the case of `CCC(NS(=O)(=O)c1ccc(C(=O)NC2CC2)cc1)c1cnn(C)c1` (stereo not drawn), the cytotoxicity at 70.5 h was -8.25%.

These data come from ChEMBL document CHEMBL3507680, “University of Dundee, Gates Library screen for HepG2 cell viability”.
